Where two headings read alike, the source gives them in different places.
Key:
Assay in all cases: Growth inhibition GI50 in vitro (CCK8/MTT, 72 h)
[1] = system: H292 (EGFR WT); assay type: cell-based; settings: Homo sapiens, NCI-H292; H292, EGFR wt; read-out: GI50
[2] = system: Calu-3 (Her2 amp); assay type: cell-based; settings: Homo sapiens; Calu-3, EGFR wt, Her2 amp; read-out: GI50
[3] = system: SK-BR-3 (Her2 amp); assay type: cell-based, human; settings: Homo sapiens
[4] = system: N87 (HER2 Amp); assay type: cell-based, human; settings: Homo sapiens
[5] = system: A549 (EGFR WT); assay type: cell-based, human; settings: Homo sapiens
[6] = system: H460 (EGFR wt, Kras G61H); assay type: cell-based, human; settings: Homo sapiens, NCI-H460
[7] = system: A431 (EGFR WT, amplification and high expression); assay type: cell-based, human; settings: Homo sapiens, A-431
[8] = system: H1299 (EGFR wt, Nras Q61K); assay type: cell-based, human; settings: Homo sapiens, NCI-H1299
[9] = system: H1975 (EGFR L858R/T790M); assay type: cell-based, human; settings: Homo sapiens, NCI-H1975
[10] = system: PC-9 (EGFR dE746-A750); assay type: cell-based, human; settings: Homo sapiens
[11] = system: HCC827 (EGFR dE746-A750); assay type: cell-based, human; settings: Homo sapiens
[12] = system: PC-9ER (EGFR delE746-A750/T790M); assay type: cell-based, human; settings: Homo sapiens, PC-9/ER; EGFR mutant cell line; range of GI50; read-out: GI50 PC9ER
[13] = system: AU565 (Her2 amp); assay type: cell-based, human; settings: Homo sapiens

- GI50 [1]: > 1000 nM
- GI50 [2]: 23.4 nM
- GI50 ([3]; SK-BR-3, HER2 positive cell line, range of GI50, read-out: GI50 SK-BR-3): 10 to 100 nM
- GI50 ([3]; SK-BR-3, EGFR wt, Her2 amp, read-out: GI50): 78.1 nM
- GI50 ([5]; A549, EGFR wild type cell line, range of GI50, read-out: GI50 A549): > 1000 nM
- GI50 ([5]; A549, EGFR wt, Kras G12S, read-out: GI50): > 1000 nM
- GI50 ([6]; EGFR wild type cell line, range of GI50, read-out: GI50 H460): > 1000 nM
- GI50 ([6]; H460, EGFR wt, Kras G61H, read-out: GI50): > 1000 nM
- GI50 ([7]; A431, EGFR wt, read-out: GI50): 315 nM
- GI50 ([7]; EGFR wild type cell line, range of GI50, read-out: GI50 A431): 100 to 1000 nM
- GI50 ([8]; EGFR wild type cell line, range of GI50, read-out: GI50 H1299): > 1000 nM
- GI50 ([8]; H1299, EGFR wt, Nras Q61K, read-out: GI50): > 1000 nM
- GI50 ([9]; EGFR mutant cell line, range of GI50, read-out: GI50 H1975): 10 to 100 nM
- GI50 ([9]; H1975, EGFR L858R/T790M, read-out: GI50): 12.5 nM
- GI50 ([10]; EGFR mutant cell line, range of GI50, read-out: GI50 PC-9): < 10 nM
- GI50 ([10]; PC-9, EGFR dE746-A750, read-out: GI50): 3.38 nM
- GI50 ([11]; HCC827, EGFR mutant cell line, range of GI50, read-out: GI50 HCC827): < 10 nM
- GI50 ([11]; HCC827, EGFR dE746-A750, read-out: GI50): 9 nM
- GI50 [12]: 10 to 100 nM
SMILES: C=CC(=O)Nc1cc(Nc2cc(-c3cn(C(C)C)c4ccccc34)ncn2)c(OC)cc1N(C)CCN(C)C [Compound 183]
- GI50 ([4]; HER2 positive cell line, range of GI50, read-out: GI50 N87): 10 to 100 nM
- GI50 ([4]; N87, EGFR wt, Her2 amp, read-out: GI50): 19.5 nM
- GI50 ([13]; AU565, HER2 positive cell line, range of GI50, read-out: GI50 AU-565): 10 to 100 nM
- GI50 ([13]; AU565, EGFR wt, Her2 amp, read-out: GI50): 19.5 nM

— patent publication US10342796B2, “Acrylanilide derivative, preparation method, and applications thereof in pharmacy” (Ancureall Pharmaceutical (Shanghai) Co., Ltd., priority 2015, dated 2019)
